Measured values as given in patent US6784137B2, “6-aryl-4-aminopicolinates and their use as herbicides” (Dow AgroSciences LLC, priority 2001, dated 2004).

Legend:
[1] = test system: Barnyardgrass (Echinochloa crus-galli); experiment: Postemergence herbicidal activity, greenhouse spray; assay type: in vivo; settings: Echinochloa crus-galli, post-emergence, 336 h, Table 1, visual score after 2 weeks, read-out: Post-emergent % control ECHCG; for pest or weed control at 500 ppm: rate 500 ppm; for pest or weed control at 250 ppm: rate 250 ppm
Outline: (§1)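 Postemergence application by compressed-air atomizer ([…]) onto plants at the 1-2 true leaf stage; rates set by serial dilution of acetone:DMSO stock into the spray carrier. Plants were kept in a greenhouse with ~15 hr photoperiod and sub-irrigated.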

[2] = test system: Cocklebur (Xanthium strumarium); experiment: as above; assay type: in vivo; settings: Xanthium strumarium, post-emergence, 336 h, Table 1, visual score after 2 weeks, read-out: Post-emergent % control XANST; for pest or weed control at 500 ppm: rate 500 ppm, 0 no injury, 100 complete kill; for pest or weed control at 250 ppm: rate 250 ppm
Outline: as §1

[3] = test system: Lambsquarter (Chenopodium album); experiment: as above; assay type: in vivo; settings: Chenopodium album, post-emergence, 336 h, Table 1, visual score after 2 weeks, read-out: Post-emergent % control CHEAL; for pest or weed control at 500 ppm: rate 500 ppm; for pest or weed control at 250 ppm: rate 250 ppm
Outline: as §1

[4] = test system: Yellow nutsedge (Cyperus esculentus); experiment: as above; assay type: in vivo; settings: Cyperus, post-emergence, 336 h, Table 1, visual score after 2 weeks, read-out: Post-emergent % control CYPES; for pest or weed control at 500 ppm: rate 500 ppm; for pest or weed control at 250 ppm: rate 250 ppm
Outline: as §1

[5] = test system: Crabgrass(large) (Digitaria sanguinalis); experiment: Preemergence herbicidal activity, soil spray; assay type: in vivo; settings: Digitaria sanguinalis, pre-emergence, 504 h, Table 5, visual score after 3 weeks, read-out: Pre-emergent % control DIGSA; for pest or weed control at 560 ppm: rate 560 ppm; for pest or weed control at 140 ppm: rate 140 ppm
Description: (§2) Seeds of the desired test plant species were planted in a soil matrix prepared by mixing a loam soil (43 percent silt, 19 percent clay, and 38 percent sand, with a pH of about 8.1 and an organic matter content of about 1.5 percent) and sand in a 70 to 30 ratio. The soil matrix was contained in plastic pots with a surface area of 113 square centimeters. When required to ensure good germination and healthy plants, a fungicide treatment and/or other chemical or physical treatment was applied. A weighed amount, determined by the highest rate to be tested, of each test compound was placed in a 20 mL glass vial and was dissolved in 4 mL of a 97:3 v/v (volume/volume) mixture of acetone and dimethyl sulfoxide to obtain concentrated stock solutions. […] The stock solutions obtained were diluted with a 99.9:0.1 mixture of water and Tween® 155 surfactant to obtain application solutions of known concentration. The solutions containing the highest concentration to be tested were prepared by diluting 2 mL aliquots of the stock solution with 15 mL of the mixture and lower concentrations were prepared by serial dilution of the stock solution. A 2.5 mL aliquot of each solution of known concentration was sprayed evenly onto the soil surface (113 sq. cm) of each seeded pot using a Cornwall 5.0 mL glass syringe fitted with a TeeJet TN-3 hollow cone nozzle to obtain thorough coverage of the soil in each pot. Control pots were sprayed in the same manner with the aqueous mixture. The treated pots and control pots were placed in a greenhouse maintained with an approximate 15 hr photoperiod and temperatures of about 23-29° C. during the day and 22-28° C. during the night. Nutrients and water were added on a regular basis and supplemental lighting was provided with overhead metal halide 1000-Watt lamps as necessary. The water was added by top-irrigation.

[6] = test system: Giant Foxtail (Setaria faberi); experiment: Preemergence herbicidal activity, soil spray; assay type: in vivo; settings: Setaria faberi, pre-emergence, 504 h, Table 5, visual score after 3 weeks, read-out: Pre-emergent % control SETFA; for pest or weed control at 560 ppm: rate 560 ppm; for pest or weed control at 140 ppm: rate 140 ppm
Description: as §2

[7] = test system: Lambsquarter (Chenopodium album); experiment: Preemergence herbicidal activity, soil spray; assay type: in vivo; settings: Chenopodium album, pre-emergence, 504 h, Table 5, visual score after 3 weeks, read-out: Pre-emergent % control CHEAL; for pest or weed control at 560 ppm: rate 560 ppm, 100 complete kill or no germination; for pest or weed control at 140 ppm: rate 140 ppm
Description: as §2

[8] = test system: Pigweed (redroot) (Amaranthus retroflexus); experiment: Preemergence herbicidal activity, soil spray; assay type: in vivo; settings: Amaranthus retroflexus, pre-emergence, 504 h, Table 5, visual score after 3 weeks, read-out: Pre-emergent % control AMARE; for pest or weed control at 560 ppm: rate 560 ppm; for pest or weed control at 140 ppm: rate 140 ppm
Description: as §2

Row | melting point [°C] | SMILES | pest or weed control at 500 ppm [1] [%] | pest or weed control at 500 ppm [2] [%] | pest or weed control at 500 ppm [3] [%] | pest or weed control at 500 ppm [4] [%] | pest or weed control at 560 ppm [5] [%] | pest or weed control at 560 ppm [6] [%] | pest or weed control at 560 ppm [7] [%] | pest or weed control at 560 ppm [8] [%] | pest or weed control at 250 ppm [1] [%] | pest or weed control at 250 ppm [2] [%] | pest or weed control at 250 ppm [3] [%] | pest or weed control at 250 ppm [4] [%] | pest or weed control at 140 ppm [5] [%] | pest or weed control at 140 ppm [6] [%] | pest or weed control at 140 ppm [7] [%] | pest or weed control at 140 ppm [8] [%]
1 | 182 to 183 | COC(=O)c1nc(-c2ccc(Cl)cc2F)c(F)c(N)c1F [Compound 93, Methyl 4-amino-3,5-difluoro-6-(4-chloro-2-fluorophenyl)pyridine-2-carboxylate] | 90 | 100 | 95 | 80 | 30 | 50 | 100 | 100 | – | – | – | – | – | – | – | –
2 | 173 to 175 | Cc1cccc(-c2cc(N)c(Cl)c(C(=O)O)n2)c1 [Compound 138, 4-Amino-3-chloro-6-(3-methylphenyl)pyridine-2-carboxylic acid] | – | – | – | – | 100 | 98 | 100 | 100 | 50 | 100 | 100 | 20 | – | – | – | –
3 | 177 to 179 | COc1ccccc1-c1cc(N)c(Cl)c(C(=O)O)n1 [Compound 139, 4-Amino-3-chloro-6-(2-methoxyphenyl)pyridine-2-carboxylic acid] | – | – | – | – | 100 | 100 | 100 | 100 | 70 | 100 | 95 | 30 | – | – | – | –
4 | 192 | COc1ccc(-c2cc(N)c(Cl)c(C(=O)O)n2)cc1 [Compound 141, 4-Amino-3-chloro-6-(4-methoxyphenyl)pyridine-2-carboxylic acid] | – | – | – | – | 60 | 70 | 100 | 98 | 80 | 100 | 100 | 10 | – | – | – | –
5 | 171 | Nc1cc(-c2cccc(Cl)c2)nc(C(=O)O)c1Cl [Compound 143, 4-Amino-3-chloro-6-(3-chlorophenyl)pyridine-2-carboxylic acid] | 70 | 100 | 100 | 40 | 100 | 100 | 100 | 100 | – | – | – | – | – | – | – | –
6 | 190 to 191 | Cc1cc(-c2cc(N)c(Cl)c(C(=O)O)n2)ccc1Cl [Compound 149, 4-Amino-3-chloro-6-(4-chloro-3-methylphenyl)pyridine-2-carboxylic acid] | 95 | 100 | 100 | 100 | – | – | – | – | – | – | – | – | 100 | 100 | 100 | 100
7 | 185 to 186 | Nc1cc(-c2ccc(Cl)c(Cl)c2)nc(C(=O)O)c1Cl [Compound 150, 4-Amino-3-chloro-6-(3,4-dichlorophenyl)pyridine-2-carboxylic acid] | 95 | 100 | 100 | 95 | – | – | – | – | – | – | – | – | 90 | 100 | 100 | 100
